Reference: patent US8901118B2, “Compounds and methods for kinase modulation, and indications therefor” (Plexxikon Inc., priority 2010, dated 2014)

Assays:
Fms kinase = Fms kinase (Homo sapiens, UniProt P07333); test: Fms kinase biochemical activity assay (AlphaScreen, biotin-(E4Y)10 phosphorylation); details: 100 μM ATP; read-out: Biochemical Inhibition IC50 Fms
In short: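 AlphaScreen read-out (PY20 acceptor, streptavidin donor beads, EDTA stop) of biotin-(E4Y)10 phosphorylation, with IC50 taken from the concentration–signal curve. Reaction: 30 nM substrate, 100 μM ATP, 1 ng/well Fms, Hepes pH 7.5 with Mg2+/Mn2+, 5% DMSO, 20 min at 30 °C.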

BCR-FMS BaF3 cells = biological target: T1, BCR-FMS BaF3 cells (Homo sapiens, UniProt P07333); test: BaF3 BCR-FMS cell proliferation assay (ATPlite); type: cell-based; details: read-out: Inhibition of Cell Proliferation IC50, BCR/BaF3 Fms
T1 construct: fused on or other part: P11274 (Breakpoint cluster region protein)
T1 sequence (P07333 582-910): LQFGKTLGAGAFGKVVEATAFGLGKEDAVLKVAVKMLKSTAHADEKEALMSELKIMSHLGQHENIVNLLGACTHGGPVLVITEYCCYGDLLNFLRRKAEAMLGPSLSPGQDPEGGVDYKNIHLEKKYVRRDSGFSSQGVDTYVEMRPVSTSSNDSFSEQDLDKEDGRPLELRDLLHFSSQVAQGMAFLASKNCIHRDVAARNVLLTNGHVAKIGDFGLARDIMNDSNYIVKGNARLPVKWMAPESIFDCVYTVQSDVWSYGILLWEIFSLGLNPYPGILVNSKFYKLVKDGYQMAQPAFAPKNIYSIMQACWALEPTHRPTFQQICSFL
In short: (§1)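 IL-3-free growth, 3-day compound exposure (8-point 1:3 titration, top 10 μM, DMSO control), 37 °C 5% CO2. BaF3 10,000 or MV-4-11 25,000 cells/well, plated overnight beforehand. Read-out ATPlite luminescence vs concentration → IC50.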

BCR-NTRK3 BaF3 cells = biological target: T2, BCR-NTRK3 BaF3 cells (Homo sapiens, UniProt Q16288); test: BaF3 BCR-NTRK3 cell proliferation assay (ATPlite); type: cell-based; details: read-out: Inhibition of Cell Proliferation IC50, BCR/BaF3 TrkC
T2 construct: fused on or other part: P11274 (Breakpoint cluster region protein)
In short: as §1

SKNSH cells = test: SKNSH (human neuroblastoma) cell proliferation assay (ATPlite); type: cell-based; details: SK-N-SH, read-out: Inhibition of Cell Proliferation IC50, SKNSH
Method: Compounds are assessed in a variety of cell based assays. For example BaF3 cells engineered with any of BCR-FMS, BCR-KIT, BCR-FLT3, BCR-NTRK1, BCR-NTRK2, and BCR-NTRK3, are used in cell proliferation assays to assess inhibitory activity of Fms, Kit, Flt-3, TrkA, TrkB, and TrkC, respectively. An MV-4-11 (leukemia) cell proliferation assay is used to assess inhibitory activity in Flt-3, and SKNSH (human neuroblastoma) cell proliferation assay is used to assess efficacy of Fms/Trk inhibitors. Additional cells may be assayed similarly to assess the efficacy of Fms/Trk inhibitors, such as MiaPaCa (human pancreatic cancer) and Capan-1 (human pancreatic carcinoma) cells. Reagent and assay conditions are as follows: • BaF3 cells: • Maintained in RPMI containing 10% FBS, 1% PenStrep, 1% NEAA, and 1% L-Glutamine, supplemented with 1 mg/mL G418 and 5% WEHI-CM (or recombinant murine IL-3). • Confluent cells are split 1:50 to 1:100 every 3-4 days. • MV-4-11 cells: • Maintained in Iscove's Modified Dulbecco's Medium containing 10% FBS. • Confluent cells are split 1:4 every 3-4 days. • SKNSH cells: RPMI containing 10% FBS. On day 1, cells are counted, then centrifuged in a conical tube for 5 minutes at 1000 rpm. The supernatant is removed and cells are re-suspended as follows: • BaF3: resuspend in growth media +1 mg/mL G418 (without WEHFIL-3) to 2×10^5 cells/mL. • MV-4-11: resuspend in growth media to 5×10^5 cells/mL. • SKNSH: resuspend in growth media to 2×10^4 cells/mL. The cells are plated (50 μL, 150 μL for SKNSH cells) in each well of a 96-well dish (Corning 3610) and incubated at 37° C. in 5% CO2 overnight, cells plated to a final concentration of cells as follows: • BaF3: 10,000 cells per well. • MV-4-11: 25,000 cells per well. • SKNSH: 3,000 cells per well. On day 2, compound at a maximum concentration of 5 mM is serially diluted 1:3 for a total of 8 point titration with DMSO as a control. A 1 μL aliquot of each dilution point is added to 249 μL growth media and 50 μL is added to a well containing cells, providing 10 μM compound for the maximum concentration point. The cells are incubated for 3 days at 37° C. in 5% CO2. For SKNSH cells, a 0.75 μL aliquot of appropriate dilution in DMSO is added to 150 μL of cells. On day 5, ATPlite 1 step Luminescence Assay System (Perkin Elmer #6016739) is brought to room temperature along with the cell cultures. ATPlite is added to each well as follows: • BaF3: 25 μL per well. • MV-4-11: 40 μL per well. • SKNSH: 20 μL per well. The cells are incubated at room temperature for 10 minutes, then luminescence is read on Safire reader. The measured luminescence correlates directly with cell number, such that the reading as a function of compound concentration is used to determine the IC50 value.
It is understood that the results of these assays may vary as assay conditions are varied. Inhibition levels determined under the conditions described herein represent a relative activity for the compounds tested under the specific conditions employed. The cell based assays are likely to show variability due to the complexity of the system and the sensitivity thereof to any changes in the assay conditions. […] Results for compounds that are tested and show substantially no inhibition below the highest tested concentration are represented as “-” in the tables below. In some instances, the compounds were not tested in all of the assays, or assay results were not valid, as indicated by NA in the tables below.

Fms kinase, sequence (P07333 20-972): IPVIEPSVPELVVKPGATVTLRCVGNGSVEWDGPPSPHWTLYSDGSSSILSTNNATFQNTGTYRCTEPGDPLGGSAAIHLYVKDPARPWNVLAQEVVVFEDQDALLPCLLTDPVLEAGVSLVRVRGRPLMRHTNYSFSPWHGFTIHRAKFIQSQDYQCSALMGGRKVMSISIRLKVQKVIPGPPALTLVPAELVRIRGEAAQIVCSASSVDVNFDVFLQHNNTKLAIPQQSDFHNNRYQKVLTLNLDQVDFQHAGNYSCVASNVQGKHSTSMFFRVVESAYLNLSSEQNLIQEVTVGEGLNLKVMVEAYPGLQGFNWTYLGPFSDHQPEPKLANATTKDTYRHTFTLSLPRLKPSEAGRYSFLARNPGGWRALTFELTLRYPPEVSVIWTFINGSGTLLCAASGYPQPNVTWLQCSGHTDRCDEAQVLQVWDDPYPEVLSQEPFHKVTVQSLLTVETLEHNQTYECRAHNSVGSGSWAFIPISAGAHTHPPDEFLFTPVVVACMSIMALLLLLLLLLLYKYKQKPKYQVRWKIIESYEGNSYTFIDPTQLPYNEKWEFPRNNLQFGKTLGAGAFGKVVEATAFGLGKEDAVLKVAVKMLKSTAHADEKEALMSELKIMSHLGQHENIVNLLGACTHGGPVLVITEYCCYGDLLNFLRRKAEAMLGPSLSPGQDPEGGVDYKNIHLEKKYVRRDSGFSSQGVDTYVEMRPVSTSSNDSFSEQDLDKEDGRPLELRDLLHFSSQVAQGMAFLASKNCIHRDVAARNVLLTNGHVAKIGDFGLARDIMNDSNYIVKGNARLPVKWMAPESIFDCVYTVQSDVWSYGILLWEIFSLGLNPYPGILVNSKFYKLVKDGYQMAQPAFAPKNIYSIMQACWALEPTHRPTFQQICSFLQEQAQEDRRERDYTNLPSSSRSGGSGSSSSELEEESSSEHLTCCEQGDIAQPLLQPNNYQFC
T2 sequence (Q16288 whole entry, the tested form may be a part): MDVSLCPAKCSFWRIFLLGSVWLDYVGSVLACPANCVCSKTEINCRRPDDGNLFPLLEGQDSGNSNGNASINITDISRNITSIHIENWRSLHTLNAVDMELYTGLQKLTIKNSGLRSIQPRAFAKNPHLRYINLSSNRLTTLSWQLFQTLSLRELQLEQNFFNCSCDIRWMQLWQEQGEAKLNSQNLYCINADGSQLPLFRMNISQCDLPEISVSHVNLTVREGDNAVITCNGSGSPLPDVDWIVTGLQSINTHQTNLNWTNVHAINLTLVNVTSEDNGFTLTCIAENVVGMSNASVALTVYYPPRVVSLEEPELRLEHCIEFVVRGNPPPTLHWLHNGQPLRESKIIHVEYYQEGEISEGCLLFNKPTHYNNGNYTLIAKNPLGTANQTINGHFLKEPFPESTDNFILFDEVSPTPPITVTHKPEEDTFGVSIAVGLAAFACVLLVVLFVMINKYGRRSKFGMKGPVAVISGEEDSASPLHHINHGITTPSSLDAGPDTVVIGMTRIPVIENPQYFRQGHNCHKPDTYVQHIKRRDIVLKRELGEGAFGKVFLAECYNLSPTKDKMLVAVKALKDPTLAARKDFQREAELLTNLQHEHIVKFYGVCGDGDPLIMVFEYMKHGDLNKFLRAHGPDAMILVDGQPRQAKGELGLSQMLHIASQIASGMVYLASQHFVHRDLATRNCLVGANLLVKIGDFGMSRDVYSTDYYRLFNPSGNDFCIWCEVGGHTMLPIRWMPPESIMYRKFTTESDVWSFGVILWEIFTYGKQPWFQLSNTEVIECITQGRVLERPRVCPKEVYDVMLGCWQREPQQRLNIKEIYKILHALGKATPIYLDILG

IC50 (Fms kinase) | IC50 (BCR-FMS BaF3 cells) | IC50 (BCR-NTRK3 BaF3 cells) | IC50 (SKNSH cells) | SMILES
< 100 nM | < 100 nM | < 10 nM | < 1000 nM | COc1cncc(Nc2ccc(C(=O)c3c[nH]c4ncnc(NC(C)C)c34)c(F)n2)c1 [Compound P-4106, [2-fluoro-6-[(5-methoxy-3-pyridyl)amino]-3-pyridyl]-[4-(isopropylamino)-7H-pyrrolo[2,3-d]pyrimidin-5-yl]methanone]
< 100 nM | < 100 nM | < 10 nM | < 1000 nM | COc1cncc(Nc2ccc(C(=O)c3c[nH]c4ncnc(NC5CC5)c34)c(F)n2)c1 [Compound P-4107, [4-(cyclopropylamino)-7H-pyrrolo[2,3-d]pyrimidin-5-yl]-[2-fluoro-6-[(5-methoxy-3-pyridyl)amino]-3-pyridyl]methanone]
< 100 nM | < 100 nM | < 100 nM | > 1000 nM | CNc1ncnc2[nH]cc(C(=O)c3ccc(Nc4cncc(OC)c4)nc3F)c12 [Compound P-4108, [2-fluoro-6-[(5-methoxy-3-pyridyl)amino]-3-pyridyl]-[4-(methylamino)-7H-pyrrolo[2,3-d]pyrimidin-5-yl]methanone]
< 100 nM | < 100 nM | < 10 nM | < 10000 nM | Cc1ccc(Nc2ccc(C(=O)c3c[nH]c4ncnc(NCC(F)(F)F)c34)c(F)n2)cn1 [Compound P-4112, [2-fluoro-6-[(6-methyl-3-pyridyl)amino]-3-pyridyl]-[4-(2,2,2-trifluoroethylamino)-7H-pyrrolo[2,3-d]pyrimidin-5-yl]methanone]
< 100 nM | < 100 nM | < 10 nM | < 1000 nM | CCc1ccc(Nc2ccc(C(=O)c3c[nH]c4ncnc(NCC(F)(F)F)c34)c(F)n2)cn1 [Compound P-4120, [6-[(6-ethyl-3-pyridyl)amino]-2-fluoro-3-pyridyl]-[4-(2,2,2-trifluoroethylamino)-7H-pyrrolo[2,3-d]pyrimidin-5-yl]methanone]
< 10 nM | < 10 nM | < 10 nM | < 100 nM | CCNc1ncnc2[nH]cc(C(=O)c3ccc(Nc4ccc(CC)nc4)nc3F)c12 [Compound P-4123, [4-(ethylamino)-7H-pyrrolo[2,3-d]pyrimidin-5-yl]-[6-[(6-ethyl-3-pyridyl)amino]-2-fluoro-3-pyridyl]methanone]
< 10 nM | < 10 nM | < 10 nM | < 1000 nM | CCc1ccc(Nc2ccc(C(=O)c3c[nH]c4ncnc(NC)c34)c(F)n2)cn1 [Compound P-4124, [6-[(6-ethyl-3-pyridyl)amino]-2-fluoro-3-pyridyl]-[4-(methylamino)-7H-pyrrolo[2,3-d]pyrimidin-5-yl]methanone]
< 10 nM | < 10 nM | < 10 nM | < 100 nM | COc1ccc(Nc2ccc(C(=O)c3c[nH]c4ncnc(NC5CC5)c34)c(F)n2)cn1 [Compound P-4126, [4-(cyclopropylamino)-7H-pyrrolo[2,3-d]pyrimidin-5-yl]-[2-fluoro-6-[(6-methoxy-3-pyridyl)amino]-3-pyridyl]methanone]
< 100 nM | < 10 nM | < 100 nM | < 10000 nM | Fc1cc(Cc2c[nH]c3ncnc(NC4CC4)c23)cnc1NC1CCC(F)(F)CC1 [Compound P-4127, N-cyclopropyl-5-[[6-[(4,4-difluorocyclohexyl)amino]-5-fluoro-3-pyridyl]methyl]-7H-pyrrolo[2,3-d]pyrimidin-4-amine]
